# Marks after values point to notes of the source that are not given here.
# Tests used:
# Male Wistar rats = assay: Behavioral despair "forced swimming" test; type: in vivo, rat; conditions: 30 min pretreatment; for Duration of immobility: mean ± SEM
# Description: Behavioral despair was proposed as a model to test for antidepressant activity by Porsolt et al (25-27). […] This behavior reflects a state of despair which can be reduced by several agents which are therapeutically effective in human depression.
# Procedure—The procedure described by Porsolt et al. (25-27) was used with minor modifications described by Chatterjee et al. (28-29). Male Wistar rats weighing 170-200 g were used. They were brought to the laboratory at least one day before the experiment and were housed separately in cages with free access to food and water. Naive rats were individually forced to swim inside a vertical glass cylinder (height: 50 cm; diameter: 25 cm, containing 20 cm of water maintained at 25° C.). […] After 2-3 minutes, activity began to subside and to be interspersed with phases of immobility or floating of increasing length. After 5-6 minutes, immobility reached a plateau where the rats remained immobile for approximately 80% of the time. After 15 minutes in the water, the rats were removed and allowed to dry in a heated enclosure (32° C.) before being returned to their home cages. Total immobility time, i.e., the time of complete cessation of swimming with the head floating just above water level, was quantified 48 hours later after re-exposing them to the water for 5 minutes. They were placed in the cylinder 48 hours later and the total duration of immobility was measured during a 5 minute test. […] An animal was judged to be immobile whenever it remained floating passively in the water in a slightly hunched but upright position, its nose just above the surface. Test samples (Hypericum extracts: HP, HPSE, Jarsin 300, HRFC, Crassulaceae special extracts, Carpediol) and standard drugs (amitriptyline and Imipramine) were administered 3 times immediately after pre-exposure, and 24 and one hour prior to testing (re-exposure) as described in Chatterjee et al., Antidepressant activity of Hypericum perforatum and Hyperforin: the neglected possibility. Pharmacopsychiatry. 31 (Suppl 1):7-15 1998), which is incorporated by reference herein in its entirety.
# Evaluation—Duration of immobility was measured in controls and animals treated with various doses of a test drug or standard. Antidepressant drugs, but also stimulants like amphetamine and caffeine, reduced duration of immobility. Dose-responses were evaluated.
# Two series of experiments were performed with the following test drugs:
# Series A: HP, HPSE, HRFC, CRE, Jarsin, amitriptyline.
# Series B: CRE-A, CRE-B, CRE-C, CRE-D, ASFC, imipramine.
# They were group-housed, four per cage at ambient temperature of 20±2° and 40-50% relative humidity, with a 12 hour dark/12 hour light cycle (lighting on time 8 a.m.). The animals had free access to pellet chow (Comby) and drinking water.
# The extracts were administered once daily for 3 consecutive days. Experiments were performed on day 3, 1 hour after the last drug or vehicle application. Amitriptyline was used as the standard antidepressant, and was administered in a single dose of 3 mg/kg (p.o.) with a pretreatment time of 30 min.
# They were administered in a volume of 5 ml/kg (p.o.). The extracts were administered once daily for 3 consecutive days. Experiments were performed on day 3, 1 hour after the last drug or vehicle application. Imipramine-HCl diluted with water to concentration of 6 mg/ml, positive control was used as the standard antidepressant. Imipramine was administered in a single dose of 30 mg/kg (p.o.) with a pretreatment time of 30 minutes. All behavioral studies were performed between 1-3 p.m. and recorded by a video camera. The tapes were evaluated afterwards by an observer who was not informed about the type of treatment each animal had received.
# Statistics—Statistical analysis of the duration of immobilization time of rats in swimming test was performed by unpaired two tailed Students t-test with significance 95% confidence interval. […]
# [1] = simultaneous application; cited from earlier work
# [2] = Series A, 3 mg/kg p.o. single dose
# [3] = Series B, 30 mg/kg p.o. single dose
smiles,measurement,setting,value
CN(C)CCC=C1c2ccccc2CCc2ccccc21 [Amitriptyline],Percent (duration of immobility vs vehicle),Male Wistar rats; [2],66.3%
same,Percent decrease (duration of immobility),Male Wistar rats; [2],43.7%
same,Duration of immobility,Male Wistar rats; [2],"117.8 ± 33.32, n = 8 seconds"
CN(C)CCCN1c2ccccc2CCc2ccccc21 [Imipramine],Percent (duration of immobility vs vehicle),Male Wistar rats; [3],34.9*** Percent
same,Percent decrease (duration of immobility),Male Wistar rats; [3],65.1*** Percent
same,Duration of immobility,Male Wistar rats; [3],76.0 ± 21.1 n = 6 Seconds
CN/C(=N/CCSCc1nc[nH]c1C)NC#N [cimetidine],Effect on the metabolism of theophylline (in words),[1],inhibit
CC(C)NCC(O)COc1cccc2ccccc12 (centres unmarked) [propranolol],Effect on the metabolism of theophylline (in words),[1],inhibit
